What was measured:
[1] = system: 3T3 Swiss Albino cells; assay: In vitro toxicity test (MTT) on cell viability; format: cell-based; settings: 0.02 μM, 48 hours
Procedure: METHODS: 3T3 Swiss Albino cells were cultured in 96-well plates. The cells were then administered with the extract combination of Lagerstroemia speciosa and Cinnamomum burmannii in a range of dose 1-10 μg/ml, pioglitazone and glimepiride (as control) for 48 hours to study the extract toxicity towards cells. Each well was added MTT reagent and the number of living cells was counted using a spectrometer.

[2] = system: insulin resistance adipocytes 3T3 Swiss Albino cells; assay: Glucose uptake by insulin resistance adipocytes (anthrone reagent, spectrophotometer); format: cell-based; settings: 5 μg/ml extract combination or 0.02 μM pioglitazone, 48 hours, from the initial 5% (untreated)
Procedure: FIG. 12 is the graphic of glucose measurement results obtained from insulin resistance adipocytes 3T3 Swiss Albino after administration of 5 μg/ml Lythraceae and Lauraceae family plant combination extracts or 0.02 μM pioglitazone and/or 25 nM insulin during 48 hours incubation, then incubation with 5 mg/ml glucose for 0, 2, 4, 6 hours. 3T3 Swiss Albino cells were differentiated until 3T3 Swiss Albino pre-adipocytes and 3T3 Swiss Albino adipocytes cells were obtained. Each cell type received excessive glucose for over 2 weeks. Incubated cells received such excessive glucose were used as insulin resistance model. After that, those four type cells obtained were tested for its ability to uptake glucose in media. The remaining glucose level was analyzed so that the glucose level uptaken by each 3T3 Swiss Albino cell type could be determined. To measure glucose level that was uptaken by cell, we used an experiment method which is initialized by culturing 3T3 Swiss Albino cells in 6 cm-diameter plates. […] Glucose concentration that was uptaken by cells was measured by subtracting the initial glucose concentration with the remaining glucose in media at the end of incubation time. […] The reaction result was quantified by spectrophotometer.

Row | Compound | cell viability [1] | glucose level uptaken [2]
1 | CCC1=C(C)CN(C(=O)NCCc2ccc(S(=O)(=O)NC(=O)N[C@H]3CC[C@H](C)CC3)cc2)C1=O [glimepiride] | did not show any effect | –
2 | CCc1ccc(CCOc2ccc(CC3SC(=O)NC3=O)cc2)nc1 (stereo not drawn) [pioglitazone] | did not show any effect | 20%
